Reference: ChEMBL document CHEMBL1201862, “PubChem BioAssay data set” (2004)
Values belong to the compound of their own block, whether it stands above or below them. Active and inactive are the calls of the source. For most assays here, no stated cut-off is given here; in the data, actives have a measured IC50 and inactives only a lower limit.

Legend:
HEK293 [1] = experiment: cells; type: functional, cell-based; settings: Homo sapiens
HEK293 [2] = experiment: cells; settings: Homo sapiens
HEK293 [3] = experiment: inhibition of NOD1-driven NF-kB reporter – cell-based, luminescence, uHTS, primary screen (AID 1578); type: functional; settings: Homo sapiens
[4] = viability of PTEN-deleted HCT116 cells – cell-based, HCT116 PTEN knockout, dose response (AID 1047); type: functional;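 further: HCT116 colon tumor cells with PTEN knocked out; cells exposed to compound for 60 hours before readout; potency for loss of cell viability measured by luminescence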
HEK293 [5] = experiment: NOD2 signaling inhibitors in MDP-stimulated cells, cell-based, uHTS, luminescence (AID 2001); type: functional; settings: Homo sapiens
HEK293 [6] = experiment: cells; type: functional, cell-based; settings: Homo sapiens; remark: listed apart in the source
[7] = target: Nucleotide-binding oligomerization domain-containing protein 2 (Homo sapiens, UniProt Q9HC29); experiment: PubChem AID 2334; type: functional
Tumor necrosis factor = Tumor necrosis factor (Homo sapiens, UniProt P01375); experiment: analog potency on TNFa NF-kB signaling – cell-based, revised, SAR follow-up (AID 2337); type: functional
[8] = viability of HCT116 lacking mutant beta-catenin – cell-based, human colon tumor, dose response (AID 1045); type: functional;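 further: HCT116 colon tumor cells with beta catenin knocked out; cells exposed to compound for 60 hours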
[9] = target: Nucleotide-binding oligomerization domain-containing protein 1 (Homo sapiens, UniProt Q9Y239); experiment: blockers of NOD1 pathway activity – revised, SAR follow-up (AID 2333); type: functional
[10] = target: G-protein coupled receptor 55 (Homo sapiens, UniProt Q9Y2T6); experiment: blockers of GPR55 signalling, imaged – imaging, image-based, counter-screen for GPR35 antagonist project, SAR follow-up (AID 2397); type: functional
[11] = target: T1, Tyrosine-protein phosphatase non-receptor type 7 (Homo sapiens, UniProt P35236); type: functional
T1 sequence (P35236 whole entry): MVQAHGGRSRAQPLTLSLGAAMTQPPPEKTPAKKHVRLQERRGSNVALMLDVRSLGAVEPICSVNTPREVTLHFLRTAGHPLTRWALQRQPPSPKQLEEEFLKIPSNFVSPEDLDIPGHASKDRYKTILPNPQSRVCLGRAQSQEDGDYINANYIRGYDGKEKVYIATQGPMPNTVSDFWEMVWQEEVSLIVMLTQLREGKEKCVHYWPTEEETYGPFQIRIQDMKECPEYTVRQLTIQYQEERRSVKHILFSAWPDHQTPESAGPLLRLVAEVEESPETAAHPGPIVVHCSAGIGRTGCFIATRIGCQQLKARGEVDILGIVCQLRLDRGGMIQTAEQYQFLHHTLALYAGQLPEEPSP

[12] = target: T2, Tyrosine-protein phosphatase non-receptor type 22 (Homo sapiens, UniProt Q9Y2R2); type: functional
T2 sequence (Q9Y2R2 whole entry): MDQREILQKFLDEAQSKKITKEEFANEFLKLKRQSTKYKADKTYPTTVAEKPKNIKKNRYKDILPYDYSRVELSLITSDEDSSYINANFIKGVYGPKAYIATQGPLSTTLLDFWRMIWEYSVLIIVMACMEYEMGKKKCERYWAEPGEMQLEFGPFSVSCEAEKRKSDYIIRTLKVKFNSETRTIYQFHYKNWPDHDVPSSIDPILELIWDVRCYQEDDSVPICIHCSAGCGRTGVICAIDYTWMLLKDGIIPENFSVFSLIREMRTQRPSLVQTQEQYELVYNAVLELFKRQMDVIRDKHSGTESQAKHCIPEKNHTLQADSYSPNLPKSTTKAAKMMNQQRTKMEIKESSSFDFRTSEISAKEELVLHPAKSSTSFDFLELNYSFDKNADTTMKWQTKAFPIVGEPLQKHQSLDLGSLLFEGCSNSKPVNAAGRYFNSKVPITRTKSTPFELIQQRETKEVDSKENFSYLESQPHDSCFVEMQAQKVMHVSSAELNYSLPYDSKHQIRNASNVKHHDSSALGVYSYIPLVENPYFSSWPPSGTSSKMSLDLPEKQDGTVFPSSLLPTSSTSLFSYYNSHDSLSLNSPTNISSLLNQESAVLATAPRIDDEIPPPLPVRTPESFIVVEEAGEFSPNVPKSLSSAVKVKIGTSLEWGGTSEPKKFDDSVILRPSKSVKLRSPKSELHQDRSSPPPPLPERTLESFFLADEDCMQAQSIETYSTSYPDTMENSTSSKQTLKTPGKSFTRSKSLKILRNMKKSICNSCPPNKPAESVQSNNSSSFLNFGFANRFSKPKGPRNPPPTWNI

[13] = target: T2, Tyrosine-protein phosphatase non-receptor type 22; type: functional; remark: listed apart in the source
[14] = target: Lysine-specific demethylase 4C (Homo sapiens, UniProt Q9H3R0); experiment: inhibition of JMJD2C H3K9me3 demethylation – biochemical, DELFIA europium, cherry-picked samples, dose response (AID 488835); type: functional
Chain of Lysine-specific demethylase 4C (Q9H3R0 whole entry): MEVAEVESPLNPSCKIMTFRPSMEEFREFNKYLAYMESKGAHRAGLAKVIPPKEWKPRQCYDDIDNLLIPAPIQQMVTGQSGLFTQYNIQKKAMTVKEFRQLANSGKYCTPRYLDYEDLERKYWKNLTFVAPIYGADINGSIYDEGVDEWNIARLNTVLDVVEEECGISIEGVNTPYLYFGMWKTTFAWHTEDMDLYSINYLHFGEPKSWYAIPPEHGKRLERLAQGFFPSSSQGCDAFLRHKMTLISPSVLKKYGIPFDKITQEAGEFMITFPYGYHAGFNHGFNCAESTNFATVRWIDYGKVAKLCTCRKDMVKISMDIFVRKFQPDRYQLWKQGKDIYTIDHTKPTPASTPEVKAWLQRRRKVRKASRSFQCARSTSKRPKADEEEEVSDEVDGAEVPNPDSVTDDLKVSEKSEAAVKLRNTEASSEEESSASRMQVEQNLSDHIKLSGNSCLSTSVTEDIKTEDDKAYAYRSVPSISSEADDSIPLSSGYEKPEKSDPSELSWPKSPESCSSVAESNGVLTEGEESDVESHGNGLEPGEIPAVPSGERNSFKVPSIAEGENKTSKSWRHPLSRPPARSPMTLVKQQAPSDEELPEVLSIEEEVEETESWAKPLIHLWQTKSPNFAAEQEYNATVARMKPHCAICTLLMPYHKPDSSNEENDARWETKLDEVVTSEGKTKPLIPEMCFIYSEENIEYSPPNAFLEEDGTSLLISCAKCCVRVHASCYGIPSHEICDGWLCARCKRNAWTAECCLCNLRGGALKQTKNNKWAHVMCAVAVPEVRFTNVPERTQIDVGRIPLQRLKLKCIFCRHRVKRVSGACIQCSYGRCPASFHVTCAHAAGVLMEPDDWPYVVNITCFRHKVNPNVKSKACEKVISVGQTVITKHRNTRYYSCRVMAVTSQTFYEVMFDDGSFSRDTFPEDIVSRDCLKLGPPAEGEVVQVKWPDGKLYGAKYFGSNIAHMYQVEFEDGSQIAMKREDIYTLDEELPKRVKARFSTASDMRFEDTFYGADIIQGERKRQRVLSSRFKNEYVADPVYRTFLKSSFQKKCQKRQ

Chain of G-protein coupled receptor 55 (Q9Y2T6 whole entry): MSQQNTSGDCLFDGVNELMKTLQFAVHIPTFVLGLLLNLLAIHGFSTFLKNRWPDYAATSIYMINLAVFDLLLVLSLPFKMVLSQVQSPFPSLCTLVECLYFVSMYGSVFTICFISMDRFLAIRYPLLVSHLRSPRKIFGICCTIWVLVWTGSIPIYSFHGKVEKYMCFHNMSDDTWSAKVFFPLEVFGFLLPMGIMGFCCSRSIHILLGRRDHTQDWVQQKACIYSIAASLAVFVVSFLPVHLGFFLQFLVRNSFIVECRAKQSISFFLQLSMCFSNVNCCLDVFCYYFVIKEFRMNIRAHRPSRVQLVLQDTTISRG
Chain of Tumor necrosis factor (P01375 whole entry): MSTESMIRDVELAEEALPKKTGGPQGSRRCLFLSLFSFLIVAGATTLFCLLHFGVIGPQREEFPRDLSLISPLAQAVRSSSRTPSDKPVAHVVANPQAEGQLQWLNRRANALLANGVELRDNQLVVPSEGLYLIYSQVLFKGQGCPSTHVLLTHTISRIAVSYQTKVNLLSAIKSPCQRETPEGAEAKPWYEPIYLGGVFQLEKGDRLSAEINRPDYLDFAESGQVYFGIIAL
Chain of Nucleotide-binding oligomerization domain-containing protein 2 (Q9HC29 whole entry, the tested form may be a part): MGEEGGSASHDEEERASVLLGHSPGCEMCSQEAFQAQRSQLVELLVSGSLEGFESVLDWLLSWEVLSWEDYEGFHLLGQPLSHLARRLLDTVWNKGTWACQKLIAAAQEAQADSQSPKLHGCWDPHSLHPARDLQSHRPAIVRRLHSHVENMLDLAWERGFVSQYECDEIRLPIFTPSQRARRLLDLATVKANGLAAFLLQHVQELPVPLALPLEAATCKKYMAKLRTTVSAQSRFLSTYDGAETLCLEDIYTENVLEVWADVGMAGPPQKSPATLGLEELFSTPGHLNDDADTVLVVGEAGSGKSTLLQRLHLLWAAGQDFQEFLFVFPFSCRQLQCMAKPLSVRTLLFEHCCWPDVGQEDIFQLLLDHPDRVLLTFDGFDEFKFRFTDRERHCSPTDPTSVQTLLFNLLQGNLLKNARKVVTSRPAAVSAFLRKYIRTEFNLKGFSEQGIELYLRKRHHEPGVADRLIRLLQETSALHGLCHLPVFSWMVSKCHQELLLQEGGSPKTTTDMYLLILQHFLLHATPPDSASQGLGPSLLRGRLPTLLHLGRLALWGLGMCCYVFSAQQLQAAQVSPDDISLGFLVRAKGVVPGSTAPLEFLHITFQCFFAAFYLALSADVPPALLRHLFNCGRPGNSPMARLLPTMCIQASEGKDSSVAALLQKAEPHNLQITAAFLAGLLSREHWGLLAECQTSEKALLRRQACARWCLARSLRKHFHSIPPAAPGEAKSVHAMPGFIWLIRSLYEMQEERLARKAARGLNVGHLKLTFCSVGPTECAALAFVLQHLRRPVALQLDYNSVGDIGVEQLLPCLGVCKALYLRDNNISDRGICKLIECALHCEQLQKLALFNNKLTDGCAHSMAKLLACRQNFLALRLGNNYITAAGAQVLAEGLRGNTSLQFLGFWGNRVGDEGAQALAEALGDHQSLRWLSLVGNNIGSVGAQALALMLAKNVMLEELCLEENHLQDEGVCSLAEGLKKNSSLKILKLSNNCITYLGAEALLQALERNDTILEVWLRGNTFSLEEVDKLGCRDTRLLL
Chain of Nucleotide-binding oligomerization domain-containing protein 1 (Q9Y239 whole entry, the tested form may be a part): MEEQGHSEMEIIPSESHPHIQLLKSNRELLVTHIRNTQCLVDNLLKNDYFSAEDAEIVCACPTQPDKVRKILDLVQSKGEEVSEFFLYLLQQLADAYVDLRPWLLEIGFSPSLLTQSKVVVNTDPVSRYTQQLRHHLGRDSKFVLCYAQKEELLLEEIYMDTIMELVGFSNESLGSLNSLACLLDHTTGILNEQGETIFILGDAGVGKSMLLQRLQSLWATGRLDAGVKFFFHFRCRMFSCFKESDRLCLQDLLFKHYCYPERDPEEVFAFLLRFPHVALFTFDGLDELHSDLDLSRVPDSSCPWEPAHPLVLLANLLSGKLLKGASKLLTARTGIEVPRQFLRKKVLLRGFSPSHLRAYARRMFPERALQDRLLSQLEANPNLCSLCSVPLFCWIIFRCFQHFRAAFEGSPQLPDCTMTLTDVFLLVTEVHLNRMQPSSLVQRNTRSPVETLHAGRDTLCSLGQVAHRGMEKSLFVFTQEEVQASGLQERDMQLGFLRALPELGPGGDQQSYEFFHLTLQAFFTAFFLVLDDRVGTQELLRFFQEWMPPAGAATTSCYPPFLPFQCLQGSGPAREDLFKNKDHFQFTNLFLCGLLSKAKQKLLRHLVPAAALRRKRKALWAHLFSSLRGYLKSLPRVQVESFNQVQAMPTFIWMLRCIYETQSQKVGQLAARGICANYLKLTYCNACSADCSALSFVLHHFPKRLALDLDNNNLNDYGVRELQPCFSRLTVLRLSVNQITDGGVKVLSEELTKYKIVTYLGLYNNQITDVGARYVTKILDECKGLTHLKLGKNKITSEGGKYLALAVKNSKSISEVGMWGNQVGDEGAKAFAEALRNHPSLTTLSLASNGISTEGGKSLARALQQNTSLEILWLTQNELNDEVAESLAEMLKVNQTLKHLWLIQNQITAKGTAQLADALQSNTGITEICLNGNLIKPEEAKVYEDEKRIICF

SMILES: Cc1cccc(-n2nc3c4c(ccc3c2O)C(=O)c2ccccc2C4=O)c1
IC50 (HEK293 [1]): > 20 µM (inactive)
IC50 (HEK293 [2]): > 20 µM (inactive)
EC50 (HEK293 [3]): 8.5 µM (active)
EC50 [4]: 114 µM (active)
IC50 (HEK293 [5]): > 20 µM (inactive)
IC50 (HEK293 [6]): > 20 µM (inactive)
IC50 [7]: 17.8 µM (active)
IC50 (Tumor necrosis factor): 16.3 µM (active)
EC50 [8]: 30 µM (active)
IC50 [9]: 17.1 µM (active)

IC50 [10]: > 32 µM (inactive)
SMILES: Cc1ccccc1OCCC(=O)NCCc1ccc(S(N)(=O)=O)cc1

IC50 [11]: > 79.4 µM (inactive)
IC50 [12]: > 79.4 µM (inactive)
IC50 [13]: > 79.4 µM (inactive)
SMILES: Cc1ccccc1Cn1cc(NC(=O)c2nn(C)cc2Cl)cn1

AC50 [14]: 20.6 µM (active)
SMILES: CC(C)CCN(C(=O)C1=COCCO1)c1c(N)n(Cc2ccccc2)c(=O)[nH]c1=O
